Earlier results as cited in US7655374B2, “Fixing liquid, toner fixing method and apparatus, and image forming method and apparatus” (Ricoh Company, Ltd., priority 2005, dated 2010).

Conditions: acute oral toxicity; species not given

Which LD50 does the source give for `CCCCOC(=O)CCCCCCCCC(=O)OCCCC` [dibutyl sebacate] here?
Its LD50 is 14900 mg/kg.

For `CC(C)COC(=O)CCCCC(=O)OCC(C)C` [diisobutyl adipate], which LD50 is on record?
Its LD50 is 12300 mg/kg.

For `CCCCCCCCCCCC(=O)OCC` [ethyl laurate], which LD50 is on record?
The LD50 was 3000 mg/kg.

For `CCCCCCCCCCCC` [n-dodecane], which LD50 is on record?
Its LD50 is greater than 5000 mg/kg.

Which LD50 does the source give for diethoxyethyl sebacate here?
The LD50 was greater than 5000 mg/kg.
